Patent US20220348883A1, “HIGH-DENSITY CELL CULTURE METHOD” (AJINOMOTO CO., INC., priority 2020, published 2022)

System: iPS cell 1210B2 strain
Conditions: StemFit AK03N+10 mg/L choline chloride vs StemFit AK03N; suspension culture seeded at 6×10^5 cells/mL; viable cells measured on 8th day of culture; n=1
Procedure: In the following Example, the proliferation effect of induced pluripotent stem cells (iPS cells) by choline were evaluated. As the iPS cell, 1210B2 strain purchased from iPS Academia Japan was used. In addition, as a medium for iPS cells, a commercially available StemFit AKO3N (Ajinomoto Co., Inc.) was used.
Using a 30 mL single use bioreactor for iPS cells (ABLE: BWV-S03A), iPS cell 1210B2 strain was seeded in StemFit AK03N+10 μM Y-27632 (Wako: 034-24024) at a cell density of 6×10^5 cells/mL and the cells were cultured with stirring in a CO2 incubator under the conditions of 37° C., CO2 concentration=5%, stirring speed=120 rpm. On the second day of seeding, 70% of the medium was replaced with StemFit AK03N. […] The cells were transferred to a micro bioreactor ambr15 (sartorius:001-0881), and stirring culture was continued under the conditions of 37° C., pH=7.2, dissolved oxygen concentration=20%, stirring speed=300 rpm. […] On the 8th day of culture, the number of viable cells was measured using Vi-CELL™ XR (Beckman Coulter), a live/dead cell autoanalyzer.

## C[N+](C)(C)CCO.[Cl-] [choline, choline chloride]
  influence of choline on the proliferation of iPS cells (number of viable cells): cell proliferation promoting effect
